Ki and IC50 data for 18 molecules are collected here from patent publication US8637511B2, “Aminopyrimidines useful as kinase inhibitors” (Vertex Pharmaceuticals Incorporated, priority 2005, dated 2014).

One test concerns the target Aurora-1 (Aurora B) (Homo sapiens, UniProt Q96GD4). Briefly: Aurora-1 (Aurora B) inhibition assay (radiometric). The test is classed as biochemical. The note with it: read-out: Aurora B kinase Ki value. Here is the method:
An assay buffer solution was prepared which consisted of 25 mM HEPES (pH 7.5), 10 mM MgCl2, 0.1% BSA and 10% glycerol. […] To 22 μL of the Aurora-B solution, in a 96-well plate, was added 2 μl of a compound stock solution in DMSO and the mixture allowed to equilibrate for 10 minutes at 25° C. The enzyme reaction was initiated by the addition of 16 μl stock [γ-^33P]-ATP solution (˜20 nCi/μL) prepared in assay buffer, to a final assay concentration of 800 μM. The reaction was stopped after 3 hours by the addition of 16 μL 500 mM phosphoric acid and the levels of ^33P incorporation into the peptide substrate were determined by the following method.
A phosphocellulose 96-well plate (Millipore, Cat no. MAPHNOB50) was pre-treated with 100 μL of a 100 mM phosphoric acid prior to the addition of the enzyme reaction mixture (40 μL). The solution was left to soak on to the phosphocellulose membrane for 30 minutes and the plate subsequently washed four times with 200 μL of a 100 mM phosphoric acid. […] Levels of non-enzyme catalyzed background radioactivity were determined by adding 16 μL of the 500 mM phosphoric acid to control wells, containing all assay components (which acts to denature the enzyme), prior to the addition of the [γ-^33P]-ATP solution. Levels of enzyme catalyzed. ^33P incorporation were calculated by subtracting mean background counts from those measured at each inhibitor concentration. […] Ki values were calculated from initial rate data by non-linear regression using the Prism software package (Prism 3.0, Graphpad Software, San Diego, Calif.).

A further test concerns Colo205 cells. Briefly: Analysis of cell proliferation and viability. The conditions noted are these: Homo sapiens, read-out: IC50 value. The test is classed as cell-based. The protocol:
Colo205 cells were seeded in 96 well plates and serially diluted compound was added to the wells in duplicate. Control groups included untreated cells, the compound diluent (0.1% DMSO alone) and culture medium without cells.
To measure proliferation, 3 h prior to the end of the experiment 0.5 μCi of 3H thymidine was added to each well. Cells were then harvested and the incorporated radioactivity counted on a Wallac microplate beta-counter. Cell viability was assessed using Promega CellTiter 96AQ to measure MTS conversion. Dose response curves were calculated using either Prism 3.0 (GraphPad) or SoftMax Pro 4.3.1 LS (Molecular Devices) software.

A further test deals with T1, Aurora-2 (Aurora A) (Homo sapiens, UniProt O14965).
T1 sequence (O14965 1-403): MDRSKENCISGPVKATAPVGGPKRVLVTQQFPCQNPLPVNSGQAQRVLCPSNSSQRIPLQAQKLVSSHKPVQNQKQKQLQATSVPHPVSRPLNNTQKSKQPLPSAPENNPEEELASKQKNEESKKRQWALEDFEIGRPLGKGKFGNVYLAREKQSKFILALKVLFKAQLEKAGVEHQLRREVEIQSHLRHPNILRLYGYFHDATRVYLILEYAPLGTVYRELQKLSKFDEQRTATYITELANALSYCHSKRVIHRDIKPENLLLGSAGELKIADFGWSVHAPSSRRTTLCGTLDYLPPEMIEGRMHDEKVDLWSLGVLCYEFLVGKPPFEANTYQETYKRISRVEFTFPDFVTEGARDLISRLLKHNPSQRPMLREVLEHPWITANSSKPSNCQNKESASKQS
Nature of the test: Aurora-2 (Aurora A) inhibition assay, coupled enzyme. The class given is biochemical. The conditions noted are these: read-out: Aurora A kinase Ki value. Here is the method:
Assays were carried out in a mixture of 100 mM Hepes (pH7.5), 10 mM MgCl2, 1 mM DTT, 25 mM NaCl, 2.5 mM phosphoenolpyruvate, 300 μM NADH, 30 μg/ml pyruvate kinase and 10 μg/ml lactate dehydrogenase. […] Assays were carried out at 30° C. and in the presence of 40 nM Aurora-2.
The plate was preincubated for 10 minutes at 30° C. and the reaction initiated by addition of 10 μl of Aurora-2. Initial reaction rates were determined with a Molecular Devices SpectraMax Plus plate reader over a 10 minute time course. IC50 and Ki data were calculated from non-linear regression analysis using the Prism software package (GraphPad Prism version 3.0cx for Macintosh, GraphPad Software, San Diego Calif., USA).

The mark [1] stands for this setting: COLO 205, Colo205 cells, incubated for 96 hours.
The mark [2] stands for this setting: COLO 205, Colo205 cells, incubated for 72 hours.

“And” between values parts separate entries of the source, which are not always exact repeats. Identical values can stand only once. Like-named read-outs stand apart in the source and are kept apart here. Bounds are passed on as bounds.

Aurora-1 (Aurora B), sequence (Q96GD4 whole entry): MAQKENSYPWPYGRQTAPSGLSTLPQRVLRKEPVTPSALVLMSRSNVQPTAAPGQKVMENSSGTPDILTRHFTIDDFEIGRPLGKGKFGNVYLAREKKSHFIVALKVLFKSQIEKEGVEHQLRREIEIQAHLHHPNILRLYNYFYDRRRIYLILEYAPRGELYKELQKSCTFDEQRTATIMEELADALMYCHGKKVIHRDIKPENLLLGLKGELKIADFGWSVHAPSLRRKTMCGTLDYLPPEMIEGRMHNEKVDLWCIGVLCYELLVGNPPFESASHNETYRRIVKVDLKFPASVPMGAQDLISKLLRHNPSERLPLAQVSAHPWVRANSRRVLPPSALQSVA

On to `Cc1cc(Nc2cc(C(=O)N3CCC3)nc(Sc3ccc(NC(=O)c4ccccc4Cl)cc3)n2)n[nH]1` [Compound 62], for which the Ki on Aurora-1 (Aurora B) was in the range of 50 to 2000 nM. In the test on Colo205 cells (setting [1]), the IC50 is above 1000 nM.
As for `CCC1(F)CN(c2cc(Nc3cc(C)n[nH]3)nc(Sc3ccc(NC(=O)CC(F)(F)F)cc3)n2)C1` [Compound 196], the inhibitory constant (Ki) on Aurora-1 (Aurora B) is at most 10 nM; on Aurora-2 (Aurora A), at most 1 nM. In the test with Colo205 cells (setting [2]), the IC50 is at most 30 nM.
In the case of `Cc1cc(Nc2cc(N3CCC3)nc(Sc3ccc(NC(=O)c4cc(F)ccc4F)cc3)n2)n[nH]1` [Compound 45], the Ki on Aurora-1 (Aurora B) is 10 to 50 nM. Further, the half-inhibitory concentration (IC50) in the test with Colo205 cells (setting [1]) fell in the range of 50 to 1000 nM.
For the molecule `Cc1cc(Nc2cc(N3CCC3)nc(Sc3ccc(NC(=O)c4sc(C)nc4C)cc3)n2)n[nH]1` [Compound 41], the inhibition constant (Ki) at Aurora-1 (Aurora B) fell in the range of 50 to 2000 nM; at Aurora-2 (Aurora A), 5 to 200 nM. In addition, the IC50 with Colo205 cells (setting [1]) lay in the range of 50 to 1000 nM.
With `Cc1cc(Nc2cc(N3CC(F)(C4CC4)C3)nc(Nc3ccc4nc(C(F)(F)F)[nH]c4c3)n2)[nH]n1` [Compound 210], the Ki fell in the range of 50 to 2000 nM on Aurora-1 (Aurora B) and 1 to 5 nM at Aurora-2 (Aurora A). Also, the IC50 in the test on Colo205 cells (setting [2]) was above 200 nM.
Regarding `CCC(=O)Nc1ccc(Sc2nc(CCN3CCC3)cc(Nc3cc(C)n[nH]3)n2)cc1` [Compound 197], the Ki at Aurora-1 (Aurora B) lay within 50 to 2000 nM; on Aurora-2 (Aurora A), 5 to 200 nM. Moreover, the half-inhibitory concentration (IC50) with Colo205 cells (setting [2]) was above 200 nM.
On the same counts, the results for `CCN(C)C(=O)c1ccc(Sc2nc(Nc3cc(C)[nH]n3)cc(N3CC(O)(C4CC4)C3)n2)cc1` [Compound 125] are 50 to 2000 nM, 1 to 5 nM and above 200 nM.
As to `Cc1cc(Nc2cc(N3CC(F)(C4CC4)C3)nc(Sc3ccc(NC(=O)C4(C(F)(F)F)CC4)cc3)n2)[nH]n1` [Compound 143], the IC50 with Colo205 cells (COLO 205, 72 h) was at most 30 nM.
Consider `COC1(C2CC2)CN(c2cc(Nc3cc(C)[nH]n3)nc(Sc3ccc(NC(=O)C4CC4)cc3)n2)C1` [Compound 118], for which the figures for the inhibition constant (Ki) on Aurora-1 (Aurora B) and on Aurora-2 (Aurora A) were at most 10 nM and at most 1 nM, respectively. Besides, the IC50 in the test with Colo205 cells (setting [2]) was at most 30 nM.
Consider `Cc1cc(Nc2cc(N3CCC3)nc(Sc3ccc(NC(=O)c4cccc(CN5CCC5)c4)cc3)n2)[nH]n1` [Compound 140], for which, at Aurora-1 (Aurora B), the inhibition constant Ki is 50 to 2000 nM. In the test on Colo205 cells (setting [1]), the concentration for half-maximal inhibition (IC50) lay in the range of 50 to 1000 nM.
As to `Cc1cc(Nc2cc(N3CCC3)nc(Sc3ccc(NC(=O)c4cccc(Cl)c4Cl)cc3)n2)n[nH]1` [Compound 42], the 50% inhibitory concentration (IC50) with Colo205 cells (setting [1]) was 50 to 1000 nM.
As to `Cc1cc(Nc2cc(N3CC(N4CCCC4)C3)nc(Sc3ccc4nc(C(F)(F)F)n(C)c4c3)n2)[nH]n1` [Compound 176], the Ki at Aurora-1 (Aurora B) was 10 to 50 nM and < 25 nM. For the same molecule, the half-maximal inhibitory concentration (IC50) with Colo205 cells (setting [2]) is at most 30 nM.
With `Cc1cc(Nc2cc(N3CCC3)nc(Sc3ccc(NC(=O)c4ccccc4Cl)nc3)n2)[nH]n1` [Compound 207], in the test with Colo205 cells (setting [2]), the IC50 is above 200 nM. Also, on Aurora-2 (Aurora A), the Ki was in the range of 1 to 5 nM.
Consider `Cc1cc(Nc2cc(N3CC(F)(C4CC4)C3)nc(Sc3ccc(N)cc3)n2)[nH]n1` [Compound 174], for which, in the test on Colo205 cells (setting [2]), the IC50 was above 200 nM.
Take `CCC(=O)Nc1ccc(Sc2nc(Nc3cc(C)n[nH]3)cc(N3CC(O)(CC(C)(C)C)C3)n2)cc1` [Compound 84]: the IC50 with Colo205 cells (setting [1]) is at most 50 nM.
On the same count and under the same terms, the value for `CSc1ccccc1C(=O)Nc1ccc(Sc2nc(Nc3cc(C)[nH]n3)cc(N3CCC3)n2)cc1` [Compound 165] was 50 to 1000 nM.
Consider `COc1cccc(C(=O)Nc2ccc(Sc3nc(Nc4cc(C)n[nH]4)cc(N4CCC4)n3)cc2)c1` [Compound 116], for which the concentration for half-maximal inhibition (IC50) in the test on Colo205 cells (setting [2]) is above 200 nM.
With `Cc1cc(Nc2cc(N3CC(F)(C4CC4)C3)nc(Sc3ccc(NC(=O)CCC(F)(F)F)cc3)n2)[nH]n1` [Compound 157], the half-inhibitory concentration (IC50) is at most 30 nM in the test on Colo205 cells (COLO 205, 72 h) and at most 50 nM in the test with Colo205 cells (COLO 205, 96 h).
